Like-named read-outs stand apart in the source and are kept apart here.
Experiments:
[1] = tested on: hypertriglyceridemic patients with cardiovascular disease or at high risk for cardiovascular disease; details: human, in vivo
[2] = tested on: hypertriglyceridemic patients with cardiovascular disease or at high risk for cardiovascular disease; assay: REDUCE-IT: fasting lipid, lipoprotein and inflammatory biomarkers and serum EPA, change from baseline; assay type: in vivo, human; details: for Approximated LDL-C (Hopkins), median difference from placebo in percent change from baseline: Hodges-Lehmann estimate
Method: Fasting Lipid Profile: The fasting lipid panel included: TG, TC, LDL-C, HDL-C, non-HDL-C, and VLDL-C. At all visits, LDL-C was calculated using the Friedewald equation. At Visit 1 and Visit 1.1 direct LDL-C were used if at the same visit TG >400 mg/dL (4.52 mmol/L). These LDL-C values were used for the evaluation of the LDL-C inclusion criterion (LDL-C qualifying measurements for randomization) and for the assessment of changes in the statin therapy when LDL-C was not at goal. […] In addition, irrespective of the TG levels, at Visit 2 (0 Months of Follow-up, baseline) and at Visit 4 (12 Months of Follow-up), LDL-C were measured by preparative ultracentrifugation. These preparative ultracentrifugation LDL-C measurements were used in the statistical analysis including the calculation of the percent change from baseline (1 year versus baseline). Hopkins LDL-C was calculated for each visit.
Biomarkers Assays: The biomarker assays included: hsCRP, Apo B and hsTnT.
The fasting lipid panel was tested at Screening (Visit 1 or Visit 1.1), Randomization visit (Visit 2; Day 0), Visit 3 (Day 120; ˜4 Months) and all other follow-up visits including the last visit. For change from baseline to 1 year preparative ultracentrifugation measurements for LDL-C were analyzed, unless this value was missing. If the LDL-C preparative ultracentrifugation values were missing, then another LDL-C value was used, with prioritization of values obtained from LDL-C Direct measurements, followed by LDL-C derived by the Friedewald calculation (only for subjects with TG <400 mg/dL), and finally LDL-C derived using the calculation published by Hopkins University investigators (Martin S S, Blaha M J, Elshazly M B, et al. Comparison of a novel method vs the Friedewald equation for estimating low-density lipoprotein cholesterol levels from the standard lipid profile. JAMA. 2013; 310:2061-8.). In addition, change from baseline to day 120 in LDL-C utilizing Friedewald's and Hopkins methods was analyzed, using the arithmetic mean of LDL-C obtained at Visit 2 (Day 0) and the preceding Visit 1 (or Visit 1.1). If one of these values was missing, the single available LDL-C value was used. LDL-C according to Hopkins was calculated at each visit.
The randomization visit was considered Baseline. If a baseline value was not available from the randomization visit, then the latest screening value was used. For measurements of lipids, lipoproteins and inflammatory markers, the change and the percent change were summarized at each visit. Since these biomarkers are typically not normally distributed, the Wilcoxon rank-sum test was used for treatment comparisons of the percent change from baseline, and medians and quartiles were provided for each treatment group. The medians of the differences between the treatment groups and 95% CIs were estimated with the Hodges-Lehmann method. In addition, shift-tables were generated as appropriate.

[3] = Last Visit, vs placebo, ITT population
[4] = baseline to the last study value

Structure (SMILES): CC/C=C\C/C=C\C/C=C\C/C=C\C/C=C\CCCC(=O)OCC [AMR101, eicosapentaenoic acid ethyl ester]
- TEAE: Infections and infestations, % ([1]; female): (48.9) %
- SAE class infections and infestations, patients [1]: 8.1%
- Serious adverse event - Infections and infestations (SOC), % patients [1]: (8.1) %
- Serious adverse event - Infections and infestations (SOC), n patients [1]: 332
- Serious adverse event - Sepsis, % patients [1]: (0.6) %
- Serious adverse event - Sepsis, n patients [1]: 25
- Serious adverse event - Urinary tract infection, % patients [1]: (0.6) %
- Serious adverse event - Urinary tract infection, n patients [1]: 25
- Severe TEAE class infections and infestations, patients [1]: 5.1%
- Severe TEAE: Infections and infestations, % [1]: (5.1) %
- Severe TEAE: Sepsis, % [1]: (0.5) %
- Severe TEAE: Urinary tract infection, % [1]: (0.3) %
- TEAE class infections and infestations, patients [1]: 44.6%
- TEAE: Upper respiratory tract infection, % [1]: (7.6) %
- TEAE: Urinary tract infection, % [1]: (6.2) %
- TEAE: Infections and infestations, % ([1]; male): (42.8) %
- Apo B Median Observed Value ([2]; Baseline, ITT population): 82.0 mg/dL
- LDL-C Hopkins Median Observed Value ([2]; Baseline, ITT population): 85.8 mg/dL
- LDL-C derived Median Observed Value ([2]; Baseline, ITT population): 74.0
- Non-HDL-C Median Observed Value ([2]; Baseline, ITT population): 118.0 mg/dL
- Triglycerides Median Observed Value ([2]; Baseline, ITT population): 216.5 mg/dL
- hsCRP Median Observed Value ([2]; Baseline, ITT population): 2.2 mg/L
- LDL-C derived Median Observed Value ([2]; Last Visit, ITT population): 77.0
- Triglycerides Median Absolute Change from Baseline ([2]; Last Visit, ITT population): 45.0 mg/dL
- LDL-C derived Between Group Difference Median % Change from Baseline [2, 3]: −6.6%
- LDL-C derived Between Group Difference Median Absolute Change from Baseline [2, 3]: −5.0
- HDL-C, median ([2]; Year 1): 39.0 mg/dL
- LDL-C, median ([2]; Year 1): 77.0 mg/dL
- HDL-C, median between group difference, % change from baseline ([2]; Year 1, vs placebo): −6.3%
- HDL-C, median between group difference, absolute change from baseline ([2]; Year 1, vs placebo): -2.5 mg/dL
- LDL-C, median between group difference, % change from baseline ([2]; Year 1, vs placebo): −6.6%
- LDL-C, median between group difference, absolute change from baseline ([2]; Year 1, vs placebo): -5.0 mg/dL
- Triglycerides Between Group Difference Median Absolute Change from Baseline ([2]; Year 1, vs placebo, ITT population): 44.5 mg/dL
- Non-HDL-C Median Observed Value ([2]; Year 2, ITT population): 113.0 mg/dL
- Triglycerides Between Group Difference Median % Change from Baseline ([2]; Year 2, vs placebo, ITT population): −19.7%
- HDL-C Median Observed Value ([2]; Year 3, ITT population): 40.0 mg/dL
- Non-HDL-C Median Absolute Change from Baseline ([2]; Year 3, ITT population): 4.8 mg/dL
- Non-HDL-C Median % Change from Baseline ([2]; Year 4, ITT population): 4.2%
- Non-HDL-C Median % Change from Baseline ([2]; Year 5, ITT population): 4.4%
- Approximated LDL-C (Hopkins), median change from baseline ([2]; baseline to one year): -1.1 mg/dL
- Approximated LDL-C (Hopkins), median percent change from baseline ([2]; baseline to one year): −1.2%
- Triglycerides, median change from baseline ([2]; baseline to one year): -39.0 mg/dL
- Triglycerides, median percent change from baseline ([2]; baseline to one year): −18.3%
- Approximated LDL-C (Hopkins), median change from baseline [2, 4]: -1.0 mg/dL
- Approximated LDL-C (Hopkins), median percent change from baseline [2, 4]: −1.2%
- Triglycerides, median change from baseline [2, 4]: -45.0 mg/dL
- Triglycerides, median percent change from baseline [2, 4]: −21.6%
- Approximated LDL-C (Hopkins), median difference from placebo in percent change from baseline ([2]; last study value): −7.4%
- Triglycerides, greater reduction than in the placebo group ([2]; one year): 44.5 mg/dL
- Triglycerides, median reduction from baseline greater than in the placebo group ([2]; one year, Hodges-Lehmann approach): 19.7%
- Approximated LDL-C (Hopkins), median difference from placebo in percent change from baseline ([2]; one year): −11.4%

From patent publication US12427134B2, “Methods of reducing the risk of cardiovascular events in a subject with atrial fibrillation and/or atrial flutter” (priority 2019, dated 2025)
